Data reported in patent US8648066B2 (Exelixis, Inc., priority 2009, dated 2014).

target: mTOR/GbL/Raptor (mTORC1) (Homo sapiens, UniProt P42345); assay: mTOR/GbL/Raptor (mTORC1) ELISA assay; assay type: biochemical; conditions: phosphorylation of 4E-BP1; 0.2 nM mTORC1, 10 μM ATP; read-out: IC50 in this assay (mTORC1 ELISA)
Method in brief: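 ELISA read-out: phospho-4E-BP1 captured on Ni-chelate plates and detected with anti-phospho antibody plus HRP-anti-IgG luminescence. The kinase step ran 120 min at ambient temperature with 0.2 nM human mTORC1, 10 µM ATP, 50 nM His-4E-BP1, 10 mM MnCl2, pH 7.2 HEPES.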

| IC50 | SMILES |
| --- | --- |
| ≤ 10 nM | Cc1nc2c(c(N3CCOc4ccc(-c5cnc6nc(C7CC7)[nH]c6c5)cc4C3)n1)CC(C)(C)CC2 [Example 544, 7-(2-cyclopropyl-1H-imidazo[4,5-b]pyridin-6-yl)-4-(2,6,6-trimethyl-5,6,7,8-tetrahydroquinazolin-4-yl)-2,3,4,5-tetrahydro-1,4-benzoxazepine] |
| ≤ 10 nM | CC1(C)C=Cc2ncnc(N3CCOc4ccc(-c5cnc6nc(C7CC7)[nH]c6c5)cc4C3)c2C1 [Example 545, 7-(2-cyclopropyl-1H-imidazo[4,5-b]pyridin-6-yl)-4-(6,6-dimethyl-5,6-dihydroquinazolin-4-yl)-2,3,4,5-tetrahydro-1,4-benzoxazepine] |
| 50 to 250 nM | C[C@H]1CCc2c(ncnc2N2CCOc3ccc(-c4cnc5nc(C6CC6)[nH]c5c4)cc3C2)C1 [Example 546, 7-(2-cyclopropyl-1H-imidazo[4,5-b]pyridin-6-yl)-4-[(7S)-7-methyl-5,6,7,8-tetrahydroquinazolin-4-yl]-2,3,4,5-tetrahydro-1,4-benzoxazepine] |
| 10 to 50 nM | Cc1nc(C)c(CC2CC2)c(N2CCOc3ccc(-c4cnc5nc(C6CC6)[nH]c5c4)cc3C2)n1 [Example 547, 7-(2-cyclopropyl-1H-imidazo[4,5-b]pyridin-6-yl)-4-[5-(cyclopropylmethyl)-2,6-dimethylpyrimidin-4-yl]-2,3,4,5-tetrahydro-1,4-benzoxazepine] |
| ≤ 10 nM | CCc1nc2ncc(-c3ccc4c(c3)CN(c3nc(C)nc5c3CC(C)(C)CC5)CCO4)cc2[nH]1 [Example 548, 7-(2-ethyl-1H-imidazo[4,5-b]pyridin-6-yl)-4-(2,6,6-trimethyl-5,6,7,8-tetrahydroquinazolin-4-yl)-2,3,4,5-tetrahydro-1,4-benzoxazepine] |
| ≤ 10 nM | Cc1nc2c(c(N3CCOc4ccc(-c5cnc6nc(C)[nH]c6c5)cc4C3)n1)CC(C)(C)CC2 [Example 550, 7-(2-methyl-1H-imidazo[4,5-b]pyridin-6-yl)-4-(2,6,6-trimethyl-5,6,7,8-tetrahydroquinazolin-4-yl)-2,3,4,5-tetrahydro-1,4-benzoxazepine] |
| 250 to 1000 nM | Cc1nc2ncc(-c3ccc4c(c3)CN(c3ncnc(N5CCOCC5)c3C)CCO4)cc2[nH]1 [Example 551] |
| ≤ 10 nM | CC1=C(C)C(C)(C)Cc2c1ncnc2N1CCOc2ccc(-c3cnc4nc(C)[nH]c4c3)cc2C1 [Example 552, 7-(2-methyl-1H-imidazo[4,5-b]pyridin-6-yl)-4-(6,6,7,8-tetramethyl-5,6-dihydroquinazolin-4-yl)-2,3,4,5-tetrahydro-1,4-benzoxazepine] |
| ≤ 10 nM | CC1=Cc2ncnc(N3CCOc4ccc(-c5cnc6nc(C)[nH]c6c5)cc4C3)c2CC1(C)C [Example 553] |
| ≤ 10 nM | CC1=CC(C)(C)Cc2c1ncnc2N1CCOc2ccc(-c3cnc4nc(C)[nH]c4c3)cc2C1 [Example 554, 7-(2-methyl-1H-imidazo[4,5-b]pyridin-6-yl)-4-(6,6,8-trimethyl-5,6-dihydroquinazolin-4-yl)-2,3,4,5-tetrahydro-1,4-benzoxazepine] |
| ≤ 10 nM | Cc1nc2ncc(-c3ccc4c(c3)CN(c3ncnc5c3CC(C)CC5)CCO4)cc2[nH]1 (stereo not drawn) [Example 555, 7-(2-methyl-1H-imidazo[4,5-b]pyridin-6-yl)-4-(6-methyl-5,6,7,8-tetrahydroquinazolin-4-yl)-2,3,4,5-tetrahydro-1,4-benzoxazepine] |
| 10 to 50 nM | Cc1nc2ncc(-c3ccc4c(c3)CN(c3ncnc5c3CCC(C)C5)CCO4)cc2[nH]1 (stereo not drawn) [Example 556, 7-(2-methyl-1H-imidazo[4,5-b]pyridin-6-yl)-4-(7-methyl-5,6,7,8-tetrahydroquinazolin-4-yl)-2,3,4,5-tetrahydro-1,4-benzoxazepine] |
| ≤ 10 nM | Cc1nc2ncc(-c3ccc4c(c3)CN(c3ncnc5c3CCC(C)(c3ccccc3)C5)CCO4)cc2[nH]1 (stereo not drawn) [Example 558, 7-(2-methyl-1H-imidazo[4,5-b]pyridin-6-yl)-4-(7-methyl-7-phenyl-5,6,7,8-tetrahydroquinazolin-4-yl)-2,3,4,5-tetrahydro-1,4-benzoxazepine] |
| 10 to 50 nM | Cc1nc2ncc(-c3ccc4c(c3)CN(c3ncnc5c3CC[C@@H](C)C5)CCO4)cc2[nH]1 [Example 559, 7-(2-methyl-1H-imidazo[4,5-b]pyridin-6-yl)-4-[(7R)-7-methyl-5,6,7,8-tetrahydroquinazolin-4-yl]-2,3,4,5-tetrahydro-1,4-benzoxazepine] |
| 50 to 250 nM | Cc1nc2ncc(-c3ccc4c(c3)CN(c3ncnc5c3CC[C@H](C)C5)CCO4)cc2[nH]1 [Example 560, 7-(2-methyl-1H-imidazo[4,5-b]pyridin-6-yl)-4-[(7S)-7-methyl-5,6,7,8-tetrahydroquinazolin-4-yl]-2,3,4,5-tetrahydro-1,4-benzoxazepine] |
| 250 to 1000 nM | Cc1nc2ncc(-c3ccc4c(c3)CN(c3ncnc(N5CCN(C)CC5)c3C)CCO4)cc2[nH]1 [Example 563, 7-(2-methyl-1H-imidazo[4,5-b]pyridin-6-yl)-4-[5-methyl-6-(4-methylpiperazin-1-yl)pyrimidin-4-yl]-2,3,4,5-tetrahydro-1,4-benzoxazepine] |
| ≤ 10 nM | Cc1nc2ncc(-c3ccc4c(c3)CN(c3ncnc(C)c3C(C)C)CCO4)cc2[nH]1 [Example 564, 7-(2-methyl-1H-imidazo[4,5-b]pyridin-6-yl)-4-[6-methyl-5-(1-methylethyl)pyrimidin-4-yl]-2,3,4,5-tetrahydro-1,4-benzoxazepine] |
| 50 to 250 nM | COc1ccc2c(N3CCOc4ccc(-c5cnc6nc(C)[nH]c6c5)cc4C3)ncnc2c1 [Example 565, 7-(2-methyl-1H-imidazo[4,5-b]pyridin-6-yl)-4-[7-(methyloxy)quinazolin-4-yl]-2,3,4,5-tetrahydro-1,4-benzoxazepine] |
| 10 to 50 nM | Cc1nc2ncc(-c3ccc4c(c3)CN(c3ncnc5c3CCC(C(F)(F)F)C5)CCO4)cc2[nH]1 (stereo not drawn) [Example 566, 7-(2-methyl-1H-imidazo[4,5-b]pyridin-6-yl)-4-[7-(trifluoromethyl)-5,6,7,8-tetrahydroquinazolin-4-yl]-2,3,4,5-tetrahydro-1,4-benzoxazepine] |
| 50 to 250 nM | COCC1CCc2c(ncnc2N2CCOc3ccc(-c4cnc5nc(C)[nH]c5c4)cc3C2)C1 (stereo not drawn) [Example 567, 7-(2-methyl-1H-imidazo[4,5-b]pyridin-6-yl)-4-{7-[(methyloxy)methyl]-5,6,7,8-tetrahydrquinazolin-4-yl}-2,3,4,5-tetrahydro-1,4-benzoxazepine] |
| 50 to 250 nM | COc1ccc2c(N3CCOc4ccc(-c5cnc6[nH]c(C)nc6c5)cc4C3)nc(C)nc2c1 [Example 568, 7-(2-methyl-1H-imidazo[4,5-b]pyridin-6-yl)-4-[2-methyl-7-(methyloxy)quinazolin-4-yl]-2,3,4,5-tetrahydro-1,4-benzoxazepine] |
| 50 to 250 nM | COc1ccc2c(N3CCOc4ccc(-c5ccc(-c6c[nH]cn6)cc5)cc4C3)nc(C)nc2c1 [Example 570, 7-[4-(1H-imidazol-4-yl)phenyl]-4-[2-methyl-7-(methyloxy)quinazolin-4-yl]-2,3,4,5-tetrahydro-1,4-benzoxazepine] |
| 50 to 250 nM | CC1(C)CCc2ncnc(N3CCOc4ccc(-c5cnc6c(c5)S(=O)(=O)NC(=O)N6)cc4C3)c2C1 [Example 571, 7-[4-(6,6-dimethyl-5,6,7,8-tetrahydroquinazolin-4-yl)-2,3,4,5-tetrahydro-1,4-benzoxazepin-7-yl]-2H-pyrido[2,3-e][1,2,4]thiadiazin-3(4H)-one 1,1-dioxide] |
| 1000 to 2000 nM | CC1(C)CCc2ncnc(N3CCOc4ccc(-c5cnc(Cl)c(CS(C)(=O)=O)c5)cc4C3)c2C1 [Example 574, 7-{6-chloro-5-[(methylsulfonyl)methyl]pyridin-3-yl}-4-(6,6-dimethyl-5,6,7,8-tetrahydroquinazolin-4-yl)-2,3,4,5-tetrahydro-1,4-benzoxazepine] |
| 10 to 50 nM | CC1(C)CCc2ncnc(N3CCOc4ccc(-c5cnc(N)c(S(=O)(=O)N6C7CCC6CC(N)C7)c5)cc4C3)c2C1 (stereo not drawn) [Example 575, 8-({2-amino-5-[4-(6,6-dimethyl-5,6,7,8-tetrahydroquinazolin-4-yl)-2,3,4,5-tetrahydro-1,4-benzoxazepin-7-yl]pyridin-3-yl}sulfonyl)-8-azabicyclo[3.2.1]octan-3-amine] |
| 10 to 50 nM | CCOC(=O)Nc1nc2ncc(-c3ccc4c(c3)CN(c3ncnc5c3CC(C)(C)CC5)CCO4)cc2[nH]1 [Example 576, ethyl {6-[4-(6,6-dimethyl-5,6,7,8-tetrahydroquinazolin-4-yl)-2,3,4,5-tetrahydro-1,4-benzoxazepin-7-yl]-1H-imidazo[4,5-b]pyridin-2-yl}carbamate] |
| 10 to 50 nM | CC[C@H]1CCc2c(nc(C)nc2N2CCOc3ccc(-c4cnc5nc(NC(=O)OC)[nH]c5c4)cc3C2)C1 [Example 577, methyl (6-{4-[(7S)-7-ethyl-2-methyl-5,6,7,8-tetrahydroquinazolin-4-yl]-2,3,4,5-tetrahydro-1,4-benzoxazepin-7-yl}-1H-imidazo[4,5-b]pyridin-2-yl)carbamate] |
| 10 to 50 nM | CC[C@H]1CCc2c(ncnc2N2CCOc3ccc(-c4cnc5nc(NC(=O)OC)[nH]c5c4)cc3C2)C1 [Example 578, methyl (6-{4-[(7S)-7-ethyl-5,6,7,8-tetrahydroquinazolin-4-yl]-2,3,4,5-tetrahydro-1,4-benzoxazepin-7-yl}-1H-imidazo[4,5-b]pyridin-2-yl)carbamate] |
| 250 to 1000 nM | COC(=O)Nc1nc2ccc(-c3ccc4c(c3)CN(c3nc(CN(C)C)nc5c3CC(C)(C)CC5)CCO4)cc2[nH]1 [Example 579, methyl [6-(4-{2-[(dimethylamino)methyl]-6,6-dimethyl-5,6,7,8-tetrahydroquinazolin-4-yl}-2,3,4,5-tetrahydro-1,4-benzoxazepin-7-yl)-1H-benzimidazol-2-yl]carbamate] |

| SMILES | IC50 |
| --- | --- |
| CC1(C)CCc2ncnc(N3CCOc4ccc(-c5cnc(Cl)c(OC(F)F)c5)cc4C3)c2C1 [Example 573, 7-{6-chloro-5-[(difluoromethyl)oxy]pyridin-3-yl}-4-(6,6-dimethyl-5,6,7,8-tetrahydroquinazolin-4-yl)-2,3,4,5-tetrahydro-1,4-benzoxazepine] | 250 to 1000 nM |
